Values quoted from earlier work in US8916194B2 (Lupin Limited, priority 2010, dated 2014).

Details: in vivo

SMILES: CCN(CC)C(=O)C1(c2ccccc2)CC1CN (stereo not drawn) [Milnacipran, cis-2-amino methyl-N, N-diethyl-1-phenyl cyclopropane carboxamide]
- half-life: ~8 h
